Where a name gives a salt, the structure may show the parent alone.
Target: human VR1 (Homo sapiens, UniProt Q8NER1)
Experiment: Human VR1 antagonist assay (Ca2+ imaging)
Format: cell-based
Details: Ca2+ imaging assay using human VR1 highly expressing cells, fura-2/AM; agonist stimulation (capsaicin 300 nM or acid pH 5.8), not given
Excerpt: Human VR1 Antagonist Assay
VR1 antagonistic activity can be determined by the Ca^2+ imaging assay using human VR1 highly expressing cells. The cells that highly express human VR1 receptors are obtainable from several different conventional methods. The one standard method is cloning from human Dorsal Root Ganglion (DRG) or kidney according to the methods such as described in the journal article; Nature, 389, pp 816-824, 1997. Alternatively VR1 receptors highly expressing human keratinocytes are also known and published in the journal article (Biochemical and Biophysical Research Communications, 291, pp 124-129, 2002). […] Furthermore, the method to up regulate human VR1 gene, which is usually a silent gene or don't produce detectable level of VR1 receptors, is also available to obtain propriety cells. Such genetic modification method was described in detail; Nat. Biotechnol., 19, pp 440-445, 2001.
The cells that express human VR1 receptors were maintained in culture flask at 37° C. in an environment containing 5% CO2 until use in the assay. The intracellular Ca^2+ imaging assay to determine VR1 antagonistic activities were done by following procedures.
The culture medium was removed from the flask and fura-2/AM fluorescent calcium indicator was added to the flask at a concentration of 5 μM in the medium. The flask was placed in CO2 incubator and incubated for 1 hour. Then the cells expressing the human VR1 receptors were detached from the flask follow by washing with phosphate buffer saline, PBS(−) and re-suspended in assay buffer. The 80 μl of aliquot of cell suspension (3.75×10^5 cells/ml) was added to the assay plate and the cells were spun down by centrifuge (950 rpm, 20° C., 3 minutes).
The compounds of the examples were tested in the Human VR1 antagonist assay described above.
The capsaicin-induced changes in the intracellular calcium concentration were monitored using FDSS 6000 (Hamamatsu Photonics, Japan), a fluorometric imaging system. The cell suspension in Krebs-Ringer HEPES (KRH) buffer (115 mM NaCl, 5.4 mM KCl, 1 mM MgSO4, 1.8 mM CaCl2, 11 mM D-Glucose, 25 mM HEPES, 0.96 mM Na2HPO4, pH 7.3) were pre-incubated with varying concentrations of the test compounds or KRH buffer (buffer control) for 15 minutes at room temperature under the dark condition. Then capsaicin solution, which gives 300 nM in assay mixture, was automatically added to the assay plate by the FDSS 6000.
The Acid-induced changes in the intracellular calcium concentration were monitored using FDSS 6000 (Hamamatsu Photonics, Japan), a fluorometric imaging system. The cell suspension in resting buffer (HBSS supplemented with 10 mM HEPES, pH 7.4) were pre-incubated with varying concentrations of the test compounds or resting buffer (buffer control) for 15 minutes at room temperature under the dark condition. The cells were automatically added the stimulating solution (HBSS supplemented with MES, final assay buffer pH5.8) by the FDSS 6000.
The monitoring of the changes in the fluorescence signals (λex=340 nm/380 nm, λem=510-520 nm) was initiated at 1 minute prior to the addition of capsaicin solution or acidic buffer and continued for 5 minute.

human VR1, sequence (Q8NER1 whole entry): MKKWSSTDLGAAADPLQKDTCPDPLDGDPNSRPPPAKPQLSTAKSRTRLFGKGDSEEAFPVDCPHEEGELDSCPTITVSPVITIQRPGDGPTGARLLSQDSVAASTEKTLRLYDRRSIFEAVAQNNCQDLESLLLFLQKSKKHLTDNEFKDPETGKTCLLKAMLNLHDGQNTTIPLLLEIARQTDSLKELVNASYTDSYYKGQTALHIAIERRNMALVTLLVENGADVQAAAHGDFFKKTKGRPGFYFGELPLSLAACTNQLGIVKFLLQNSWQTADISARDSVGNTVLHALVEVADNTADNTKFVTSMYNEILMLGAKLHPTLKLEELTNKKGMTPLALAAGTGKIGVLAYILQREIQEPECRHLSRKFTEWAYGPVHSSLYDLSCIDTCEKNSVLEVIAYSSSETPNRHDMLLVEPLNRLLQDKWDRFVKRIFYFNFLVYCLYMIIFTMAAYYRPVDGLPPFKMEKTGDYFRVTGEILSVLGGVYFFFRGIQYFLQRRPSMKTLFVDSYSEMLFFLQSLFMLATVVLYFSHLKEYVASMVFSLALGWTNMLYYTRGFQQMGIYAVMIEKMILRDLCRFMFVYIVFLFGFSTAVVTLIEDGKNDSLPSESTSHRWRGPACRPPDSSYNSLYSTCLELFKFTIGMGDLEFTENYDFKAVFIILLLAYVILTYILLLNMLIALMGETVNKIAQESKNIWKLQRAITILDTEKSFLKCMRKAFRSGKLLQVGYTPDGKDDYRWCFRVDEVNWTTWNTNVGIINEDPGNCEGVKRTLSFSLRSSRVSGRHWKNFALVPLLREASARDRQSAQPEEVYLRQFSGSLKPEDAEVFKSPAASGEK

| Compound | IC50 |
| --- | --- |
| CC(O)(c1ccc2cc(C(=O)NCc3cccc4cnccc34)ccc2n1)C(F)(F)F (centres unmarked) [Example C17, N-(isoquinolin-5-ylmethyl)-2-(2,2,2-trifluoro-1-hydroxy-1-methylethyl)quinoline-6-carboxamide] | 0.176 µM |
| Cc1ccc2nccc(CNC(=O)c3ccc4nc(C(C)(C)C(F)(F)F)ccc4c3)c2c1 [Example C14, N-[(6-methylquinolin-4-yl)methyl]-2-(2,2,2-trifluoro-1,1-dimethylethyl)quinoline-6-carboxamide] | 0.422 µM |
| CC(C)(C)c1ccc2nc(C(=O)NCc3ccc4[nH]nnc4c3)ccc2c1 [Example B6, N-(1H-1,2,3-benzotriazol-5-ylmethyl)-6-tert-butylquinoline-2-carboxamide] | 0.0187 µM |

Second part, the compound after the results:

| IC50 | Compound |
| --- | --- |
| 0.017 µM | CC(C)(C)c1ccc2cc(C(=O)NCc3ccnc4ccccc34)ccc2c1 [Example A2] |
| 0.204 µM | CC(NC(=O)c1ccc2cc(C(C)(C)C)ccc2n1)c1ccnc2ccccc12 (centres unmarked) [Example B5, 6-tert-butyl-N-(1-quinolin-4-ylethyl)quinoline-2-carboxamide hydrochloride] |

Reference: US8134004B2, “Substituted N-bicyclicalkyl bicycliccarboxyamide compounds” (Pfizer Inc., priority 2006, dated 2012)
